Data reported in patent US11111242B2, “Pyrrolo[2,3-d]pyrimidinyl, pyrrolo[2,3-b]pyrazinyl and pyrrolo[2,3-d]pyridinyl acrylamides” (Pfizer Inc., priority 2013, dated 2021).
Where two headings read alike, the source gives them in different places.

What was measured:
[1] = system: IL-15 induced P-STAT5 in human PBMC (total lymphocytes); experiment: PBMC IL-15 Induced P-STAT5; format: cell-based; settings: IL-15 stimulated, read-out: PBMC IL15-pSTAT5 IC50
Outline: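 Thawed human PBMC in RPMI, preincubated 30 min at 37 °C, then IL-15 stimulated. Cells methanol-permeabilized (90%, on ice 20 min) and stained for phospho-STAT5. Read by flow cytometry, gated on total lymphocytes.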

[2] = system: IL-15 induced STAT5 phosphorylation in Human Whole Blood (total lymphocytes); experiment: HWB IL-15 Induced STAT5 Phosphorylation Assay; format: cell-based; settings: Lymphocyte, IL-15 stimulated, read-out: HWB-IL15-pSTAT5 IC50
Procedure: HWB IL-15 Induced STAT5 Phosphorylation Assay
After mixing and incubating for 45 minutes at 37° C., 5 μl D-PBS (unstimulated control) or 20× stocks of 5 μl human IL-15 (final concentration is 50 ng/ml) were added, and mixed three times. After incubating 15 minutes at 37° C., 1× Lyse/Fix Buffer (BD Phosflow 5× Lyse/Fix Buffer) was added to all wells at 1000 μl/well, then incubated for 20 minutes at 37° C. and spun 5 mins at 1200 rpm. […] Following incubating at 4° C. over night, all the samples were transferred to 96-well polypropylene U-bottom plate, and checked by flow cytometry gated on total lymphocytes.

| Structure (SMILES) | IC50 [1] [nM] | IC50 [2] [nM] | IC50 ([1]; Homo sapiens, PBMC) [nM] |
| --- | --- | --- | --- |
| C=CC(=O)N1CCC[C@@H](Nc2ncnc3[nH]cc(CC)c23)C1 [Example 44, 1-{(3R)-3-[(5-ethyl-7H-pyrrolo[2,3-d]pyrimidin-4-yl)amino]piperidin-1-yl}prop-2-en-1-one] | 320 | 1180 | – |
| C=CC(=O)N1CC[C@H](Nc2cnc3[nH]cc(C(=O)NC(C)C)c3n2)C1 [Example 171, 2-{[(3S)-1-acryloylpyrrolidin-3-yl]amino}-N-(propan-2-yl)-5H-pyrrolo[2,3-b]pyrazine-7-carboxamide] | 726 | 2950 | – |
| C=CC(=O)N1CCC(Nc2cnc3[nH]cc(C(=O)N[C@H]4CC[C@H](F)C4)c3n2)CC1 [Example 247, 2-[(1-acryloylpiperidin-4-yl)amino]-N-[(1S,3S)-3-fluorocyclopentyl]-5H-pyrrolo[2,3-b]pyrazine-7-carboxamide] | – | 651 | 141 |
| C=CC(=O)N1CCC(Nc2cnc3[nH]cc(C(=O)NC4CCCC4)c3n2)CC1 [Example 283, 2-[(1-acryloylpiperidin-4-yl)amino]-N-cyclopentyl-5H-pyrrolo[2,3-b]pyrazine-7-carboxamide] | – | 700 | 58.4 |
| C=CC(=O)N1CCC(Nc2cnc3[nH]cc(C(=O)NC[C@H](C)CC(F)(F)F)c3n2)CC1 [Example 241, 2-[(1-acryloylpiperidin-4-yl)amino]-N-[(2R)-4,4,4-trifluoro-2-methylbutyl]-5H-pyrrolo[2,3-b]pyrazine-7-carboxamide] | – | 657 | 87.9 |
| C=CC(=O)N1CCC(Nc2cnc3[nH]cc(C(=O)NCC4CCCC4)c3n2)CC1 [Example 270, 2-[(1-acryloylpiperidin-4-yl)amino]-N-(cyclopentylmethyl)-5H-pyrrolo[2,3-b]pyrazine-7-carboxamide] | – | 1220 | 53.6 |
| C=CC(=O)N1CCC(Nc2cnc3[nH]cc(C(=O)NC4CCC4)c3n2)CC1 [Example 280, 2-[(1-acryloylpiperidin-4-yl)amino]-N-cyclobutyl-5H-pyrrolo[2,3-b]pyrazine-7-carboxamide] | 39.4 | 376 | – |
| C=CC(=O)N1CC[C@@H](Nc2cnc3[nH]cc(C(=O)NC(C)C)c3n2)[C@@H](OC)C1 [Example 302, 2-{[(3S,4R)-1-acryloyl-3-methoxypiperidin-4-yl]amino}-N-(propan-2-yl)-5H-pyrrolo[2,3-b]pyrazine-7-carboxamide] | 264 | 1310 | – |
| C#CCNC(=O)c1c[nH]c2ncc(NC3CCN(C(=O)C=C)CC3)nc12 [Example 343, 2-((1-Acryloylpiperidin-4-yl)amino)-N-(prop-2-yn-1-yl)-5H-pyrrolo[2,3-b]pyrazine-7-carboxamide] | 36.8 | 105 | – |
| C=CC(=O)N1CCC(C)(Nc2cnc3[nH]cc(C(=O)NC(C)C)c3n2)CC1 [Example 318, 2-[(1-acryloyl-4-methylpiperidin-4-yl)amino]-N-(propan-2-yl)-5H-pyrrolo[2,3-b]pyrazine-7-carboxamide] | 260 | 2080 | – |
| C=CC(=O)N1CCC(Nc2cnc3[nH]cc(C(=O)N[C@H]4CC[C@@H](F)C4)c3n2)CC1 [Example 244, 2-[(1-acryloylpiperidin-4-yl)amino]-N-[(1S,3R)-3-fluorocyclopentyl]-5H-pyrrolo[2,3-b]pyrazine-7-carboxamide] | – | 403 | 127 |
| C=CC(=O)N1C[C@H](Nc2ncnc3[nH]ccc23)CCC1(C)C (single isomer, unassigned) [Example 61] | – | 1870 | 1030 |
| C=CC(=O)N1C[C@H](Nc2ncnc3[nH]ccc23)C[C@H](OC)C1 [Example 19, 1-((3R,5S)-3-((7H-Pyrrolo[2,3-d]pyrimidin-4-yl)amino)-5-methoxypiperidin-1-yl)prop-2-en-1-one] | 139 | 505 | – |
| C=CC(=O)N1C[C@@H](C#N)C[C@@H](Nc2ncnc3[nH]ccc23)C1 [Example 58, (3S,5R)-5-((7H-pyrrolo[2,3-d]pyrimidin-4-yl)amino)-1-acryloylpiperidine-3-carbonitrile] | 2790 | 7840 | – |
| C=CC(=O)N1CCC(Nc2cnc3[nH]cc(C(=O)N[C@@H]4C[C@H]4C(F)(F)F)c3n2)CC1 [Example 233, 2-[(1-acryloylpiperidin-4-yl)amino]-N-[(1R,2R)-2-(trifluoromethyl)cyclopropyl]-5H-pyrrolo[2,3-b]pyrazine-7-carboxamide] | 213 | 532 | – |
| C=CC(=O)N1CCC[C@@H](Nc2ncnc3[nH]cc(F)c23)C1 [Example 42, 1-{(3R)-3-[(5-fluoro-7H-pyrrolo[2,3-d]pyrimidin-4-yl)amino]piperidin-1-yl}prop-2-en-1-one] | – | 819 | 293 |

| Structure (SMILES) | IC50 [1] [nM] | IC50 [2] [nM] | IC50 ([1]; Homo sapiens, PBMC) [nM] |
| --- | --- | --- | --- |
| C=CC(=O)N1CC[C@@H](Nc2cnc3[nH]cc(C(=O)NC(C)C)c3n2)[C@H](OC)C1 [Example 305, 2-{[(3R,4R)-1-acryloyl-3-methoxypiperidin-4-yl]amino}-N-(propan-2-yl)-5H-pyrrolo[2,3-b]pyrazine-7-carboxamide] | 744 | 2640 | – |
| C=CC(=O)N1C[C@@H](F)C[C@@H](Nc2ncnc3[nH]ccc23)C1 [Example 15, 1-((3R,5S)-3-((7H-Pyrrolo[2,3-d]pyrimidin-4-yl)amino)-5-fluoropiperidin-1-yl)prop-2-en-1-one] | – | 400 | 128 |
| C=CC(=O)N1C[C@H](Nc2ncnc3[nH]cc(CCOC)c23)CC[C@@H]1C [Example 13, 1-((2S,5R)-5-((5-(2-Methoxyethyl)-7H-pyrrolo[2,3-d]pyrimidin-4-yl)amino)-2-methylpiperidin-1-yl)prop-2-en-1-one] | 114 | 549 | – |
| C=CC(=O)N1CCC(Nc2cnc3[nH]cc(-c4cncnc4)c3n2)CC1 [Example 202, 1-(4-{[7-(pyrimidin-5-yl)-5H-pyrrolo[2,3-b]pyrazin-2-yl]amino}piperidin-1-yl)prop-2-en-1-one] | 670 | 3740 | – |
| C=CC(=O)N1CCC[C@@H](Nc2ncnc3[nH]cc(CCOC)c23)C1 [Example 46, 1-[(3R)-3-{[5-(2-methoxyethyl)-7H-pyrrolo[2,3-d]pyrimidin-4-yl]amino}piperidin-1-yl]prop-2-en-1-one] | – | 359 | 279 |
| C=CC(=O)N1CC[C@@H](Nc2cnc3[nH]cc(C(=O)NC(C)C)c3n2)[C@@H](F)C1 [Example 320, 2-{[(3S,4R)-1-acryloyl-3-fluoropiperidin-4-yl]amino}-N-(propan-2-yl)-5H-pyrrolo[2,3-b]pyrazine-7-carboxamide] | 61.1 | 343 | – |
| C=CC(=O)N1CC[C@@H](CNc2cnc3[nH]cc(C(=O)NC(C)C)c3n2)C1 [Example 191, 2-({[(3S)-1-acryloylpyrrolidin-3-yl]methyl}amino)-N-(propan-2-yl)-5H-pyrrolo[2,3-b]pyrazine-7-carboxamide] | 2650 | 9580 | – |
| C=CC(=O)N1[C@@H]2CC[C@H]1CN(c1cnc3[nH]cc(C(=O)NC(C)C)c3n1)C2 [Example 301, 2-[(1R,5S)-8-acryloyl-3,8-diazabicyclo[3.2.1]oct-3-yl]-N-(propan-2-yl)-5H-pyrrolo[2,3-b]pyrazine-7-carboxamide] | 408 | 4900 | – |
| C=CC(=O)N1CCC(Nc2cnc3[nH]cc(C(=O)NC4CCCCC4(F)F)c3n2)CC1 (centres unmarked) [Example 256, 2-[(1-acryloylpiperidin-4-yl)amino]-N-(2,2-difluorocyclohexyl)-5H-pyrrolo[2,3-b]pyrazine-7-carboxamide] | 48.6 | 550 | – |
| C=CC(=O)N1CCC(Nc2cnc3[nH]cc(C(=O)NCCCC)c3n2)CC1 [Example 269, 2-[(1-acryloylpiperidin-4-yl)amino]-N-butyl-5H-pyrrolo[2,3-b]pyrazine-7-carboxamide] | 47.9 | 364 | – |
| C=CC(=O)N1CCC(Oc2cnc3[nH]cc(C(=O)NC(C)C)c3n2)CC1 [Example 339, 2-((1-Acryloylpiperidin-4-yl)oxy)-N-isopropyl-5H-pyrrolo[2,3-b]pyrazine-7-carboxamide] | 80.6 | 502 | – |
| C=CC(=O)N1CCC(Nc2cnc3[nH]cc(C(=O)NC4CCC(F)(F)C4)c3n2)CC1 (centres unmarked) [Example 259, 2-[(1-acryloylpiperidin-4-yl)amino]-N-(3,3-difluorocyclopentyl)-5H-pyrrolo[2,3-b]pyrazine-7-carboxamide] | 117 | 668 | – |
| C=CC(=O)N1CCC(Nc2cnc3[nH]cc(C(=O)N[C@H](C)CCC)c3n2)CC1 [Example 274, 2-[(1-acryloylpiperidin-4-yl)amino]-N-[(2R)-pentan-2-yl]-5H-pyrrolo[2,3-b]pyrazine-7-carboxamide] | 57.9 | 476 | – |
| C=CC(=O)N1C[C@@H](C)C[C@@H](Nc2ncnc3[nH]ccc23)C1 (racemic) [Example 22, rac-cis-1-((3R,5S)-3-((7H-Pyrrolo[2,3-d]pyrimidin-4-yl)amino)-5-methylpiperidin-1-yl)prop-2-en-1-one] | 216 | 712 | – |
| C=CC(=O)N1CCC[C@@H](Nc2ncnc3[nH]cc(Cl)c23)C1 [Example 3, (R)-1-(3-((5-chloro-7H-pyrrolo[2,3-d]pyrimidin-4-yl)amino)piperidin-1-yl)prop-2-en-1-one] | – | 153 | 35.2 |
